From US9969699B2, “Cancer cell growth inhibitor, anticancer agent, and method for screening same, as well as novel compound” (Microbial Chemistry Research Foundation, priority 2014, dated 2018)

Legend:
NIH3T3/EGFRWT cells = experiment: 3D cell culture step, NIH3T3/EGFRWT cells in EGF-including medium; assay type: cell-based, mouse
Experimental: (§1) After the 3 days of culture, the number of viable cells was counted by […]-GLO (trademark) Luminescent Cell Viability Assay (available from Promega), which was a method for quantitating ATP in viable cells. A cell proliferation inhibition rate in the 3D cell culture step was calculated according to (Expression 3) below. Cell proliferation inhibition rate(%)=(1−X/Y)×100 (Expression 3)
(§2) In the (Expression 3), X denotes the number of viable cells when the test substance was added, and Y denotes the number of viable cells when the test substance was not added.

[1] = Acute toxicity test, intraperitoneal administration; assay type: in vivo, ICR mice; conditions: intraperitoneally once; for Organ weight Heart / Organ weight Kidney (Left) / Organ weight Kidney (Right) / Organ weight Liver / Organ weight Lung / Organ weight Spleen / Organ weight Thymus: two weeks after
Excerpt: Two-weeks after the compounds represented by the Structural Formula (1) at the above concentrations were intraperitoneally administered, the mice were dissected and organs thereof were weighed.
Two-weeks after the compounds represented by the Structural Formula (8) at the above concentrations were intraperitoneally administered, the mice were dissected and organs thereof were weighed.

NIH3T3/EGFR vIII cells = experiment: 3D cell culture step (environment without adhesion scaffold), proliferation of NIH3T3/EGFR vIII cells; assay type: cell-based, mouse
mDia = conditions: in vitro, reported in NPL 1; cited from earlier work
U251 cells = experiment: 3D cell culture step, EGFR vIII gene non-expressing brain tumor cells U251; assay type: cell-based; conditions: Test Example 3, U251 cells
Experimental: (§3) The following 3 brain tumor cells were used as the EGFR vIII gene non-expressing cells. • U251 cells (available from ATCC) • U87MG cells (available from ATCC) • KS-1 cells (available from ATCC) <3D Cell Culture Step>
as §1, §2

[2] = Acute toxicity test, tail vein administration; assay type: in vivo, ICR mice; conditions: tail vein once; for Organ weight Heart / Organ weight Kidney (Right) / Organ weight Liver / Organ weight Lung / Organ weight Spleen / Organ weight Thymus / Organ weight Kidney (Left): two weeks after
Experimental: Two-weeks after the compounds represented by the Structural Formula (1) at the above concentrations were administered to the tail veins, the mice were dissected and organs thereof were weighed.

[3] = tested on: NIH3T3/EGFR vIII cell-transplanted tumor
[4] = Solubility (remark in acute toxicity test); assay type: physicochemical
NIH3T3 cells = experiment: 2D cell culture step (environment with adhesion scaffold), proliferation of NIH3T3 cells; assay type: cell-based; conditions: Mus musculus, 72 h; NIH3T3 cells, TC-treated plate, 3 days, […]-GLO; read-out: IC50 2D cell culture step
Experimental: Note that, as a negative control, the NIH3T3 cells at 2×10^3 cells/100 were seeded to the same plate in a volume of 100 μL per well and cultured at 37° C. in the presence of 5% CO2 for 3 days without the addition of the test substance.
Note that, Dulbecco's Modified Eagle Medium supplemented with 5% FBS was used for the culture.
A cell proliferation inhibition rate in the 2D cell culture step was calculated according to (Expression 2) below. Cell proliferation inhibition rate(%)=(1−D/E)×100 (Expression 2)
In the (Expression 2), D denotes the number of viable NIH3T3 cells when the test substance was added, and E denotes the number of viable NIH3T3 cells when the test substance was not added.

KS-1 cells = experiment: 3D cell culture step, EGFR vIII gene non-expressing brain tumor cells KS-1; assay type: cell-based; conditions: Test Example 3, KS-1 cells
Experimental: as §3, §1, §2

[5] = 30 mg/kg intraperitoneally once a day, day 1 to day 17

## Nc1ccc(Br)cc1-c1nc2ccccc2[nH]c1=O [Structural Formula (1), 3-(2-amino-5-bromophenyl)-2(1H)-quinoxalinone]
NIH3T3/EGFRWT cells; 3D cell culture step, EGF 50 ng/mL in medium
  inhibition of proliferation of the NIH3T3/EGFRWT cells: inhibited proliferation
NIH3T3/EGFRWT cells; Test Example 3, NIH3T3/EGFRWT cells, EGF-including medium
  inhibiting activity against scaffold-independent proliferation capacity: exhibited an inhibiting activity
[1]; 0.098 mg/kg/0.2 mL
  Organ weight Heart: 115.0 mg
  Organ weight Kidney (Left): 139.0 mg
  Organ weight Kidney (Right): 147.0 mg
  Organ weight Liver: 1047.0 mg
  Organ weight Lung: 160.0 mg
  Organ weight Spleen: 78.0 mg
  Organ weight Thymus: 67.0 mg
[1]; 0.195 mg/kg/0.2 mL
  Organ weight Heart: 125.0 mg
  Organ weight Kidney (Left): 175.0 mg
  Organ weight Kidney (Right): 184.0 mg
  Organ weight Liver: 1590.0 mg
  Organ weight Lung: 169.0 mg
  Organ weight Spleen: 121.0 mg
  Organ weight Thymus: 83.0 mg
[1]; 0.39 mg/kg/0.2 mL
  Organ weight Heart: 106.0 mg
  Organ weight Kidney (Left): 157.0 mg
  Organ weight Kidney (Right): 168.0 mg
  Organ weight Liver: 1350.0 mg
  Organ weight Lung: 160.0 mg
  Organ weight Spleen: 95.0 mg
  Organ weight Thymus: 74.0 mg
[1]; 0.78 mg/kg/0.2 mL
  Organ weight Heart: 115.0 mg
  Organ weight Kidney (Left): 163.0 mg
  Organ weight Kidney (Right): 159.0 mg
  Organ weight Liver: 1263.0 mg
  Organ weight Lung: 167.0 mg
  Organ weight Spleen: 116.0 mg
  Organ weight Thymus: 78.0 mg
[1]; 1.56 mg/kg/0.2 mL
  Organ weight Heart: 134.0 mg
  Organ weight Kidney (Left): 162.0 mg
  Organ weight Kidney (Right): 169.0 mg
  Organ weight Liver: 1472.0 mg
  Organ weight Lung: 178.0 mg
  Organ weight Spleen: 103.0 mg
  Organ weight Thymus: 85.0 mg
[1]; 3.125 mg/kg/0.2 mL
  Organ weight Heart: 135.0 mg
  Organ weight Kidney (Left): 193.0 mg
  Organ weight Kidney (Right): 191.0 mg
  Organ weight Liver: 1558.0 mg
  Organ weight Lung: 179.0 mg
  Organ weight Spleen: 150.0 mg
  Organ weight Thymus: 99.0 mg
[1]; 6.25 mg/kg/0.2 mL
  Organ weight Heart: 114.0 mg
  Organ weight Kidney (Left): 167.0 mg
  Organ weight Kidney (Right): 163.0 mg
  Organ weight Liver: 1412.0 mg
  Organ weight Lung: 178.0 mg
  Organ weight Spleen: 104.0 mg
  Organ weight Thymus: 68.0 mg
[1]; 12.5 mg/kg/0.2 mL
  Organ weight Heart: 107.0 mg
  Organ weight Kidney (Left): 161.0 mg
  Organ weight Kidney (Right): 163.0 mg
  Organ weight Liver: 1120.0 mg
  Organ weight Lung: 159.0 mg
  Organ weight Spleen: 98.0 mg
  Organ weight Thymus: 63.0 mg
[1]; 25 mg/kg/0.2 mL
  Organ weight Heart: 111.0 mg
  Organ weight Kidney (Left): 157.0 mg
  Organ weight Kidney (Right): 170.0 mg
  Organ weight Liver: 1316.0 mg
  Organ weight Lung: 147.0 mg
  Organ weight Spleen: 98.0 mg
  Organ weight Thymus: 92.0 mg
[1]; 50 mg/kg/0.4 mL
  Organ weight Heart: 120.0 mg
  Organ weight Kidney (Left): 166.0 mg
  Organ weight Kidney (Right): 173.0 mg
  Organ weight Liver: 1747.0 mg
  Organ weight Lung: 168.0 mg
  Organ weight Spleen: 132.0 mg
  Organ weight Thymus: 69.0 mg
[1]; 0.098 to 50 mg/kg, observed 2 weeks
  toxicity: no significant toxicity
NIH3T3/EGFR vIII cells; 3D cell culture step
  cell proliferation inhibiting activity compared with AG1478, Gefitinib and Erlotinib: more significant cell proliferation inhibiting activity
NIH3T3/EGFR vIII cells; Mus musculus, 72 h, NIH3T3/EGFR vIII cells, Ultra Low Attachment plate, 3 days, […]-GLO
  IC50: 12 nM
NIH3T3/EGFR vIII cells; Test Example 3, NIH3T3/EGFR vIII cells
  inhibiting activity against scaffold-independent proliferation capacity: exhibited an inhibiting activity
mDia
  inhibition of mDia-mediated actin assembly: inhibit mDia-mediated actin assembly in vitro
U251 cells
  inhibiting activity against scaffold-independent proliferation capacity: did not exhibit an inhibiting activity
[2]; 0.39 mg/kg/0.2 mL
  Organ weight Heart: 121.0 mg
  Organ weight Kidney (Right): 168.0 mg
  Organ weight Liver: 1325.0 mg
  Organ weight Lung: 173.0 mg
  Organ weight Spleen: 110.0 mg
  Organ weight Thymus: 83.0 mg
[2]; 0.78 mg/kg/0.2 mL
  Organ weight Heart: 116.0 mg
  Organ weight Kidney (Left): 165.0 mg
  Organ weight Kidney (Right): 174.0 mg
  Organ weight Liver: 1423.0 mg
  Organ weight Lung: 164.0 mg
  Organ weight Spleen: 115.0 mg
  Organ weight Thymus: 112.0 mg
[2]; 1.56 mg/kg/0.2 mL
  Organ weight Heart: 121.0 mg
  Organ weight Kidney (Left): 170.0 mg
  Organ weight Kidney (Right): 167.0 mg
  Organ weight Liver: 1471.0 mg
  Organ weight Lung: 170.0 mg
  Organ weight Spleen: 104.0 mg
  Organ weight Thymus: 56.0 mg
[2]; observed 2 weeks
  toxicity: no significant toxicity
[3]; 30 mg/kg intraperitoneally once a day, 17 days after transplantation, t<0.05
  tumor weight versus negative control group: significantly different
[3]; [5]
  mouse body weight (weight loss): weight loss was not observed
  toxicity: no toxicity
  tumor proliferation inhibiting activity: exhibited the tumor proliferation inhibiting activity
[3]; 30 mg/kg intraperitoneally vs Gefitinib 100 mg/kg orally
  tumor proliferation inhibiting activity compared with Gefitinib: comparable
[4]
  solubility: poor solubility
NIH3T3 cells
  IC50: > 10000 nM
KS-1 cells
  inhibiting activity against scaffold-independent proliferation capacity: did not exhibit an inhibiting activity
